Values after ≈ are worked out from the molar mass of the structure shown. Non-standard residues stand in square brackets, D forms with d. Residues, ends and D or L forms follow the SMILES beside them. hArg = N=C(N)NCCCC[C@H](N)C(=O)O
What was measured:
[1] = system: human red blood cells; type: cell-based; conditions: PBS, 37° C., 1 hr
Experimental: Hemolysis is a liability for many other cationic peptides which prevented their utility to treat systemic infections. The hemolytic potential of the peptides was tested using red blood cells collected from fresh human blood after centrifugation at room temperature and washed in phosphate buffered saline (pH 7.4) three times and then incubated in phosphate buffered saline (PBS) at 37° C. for 1 hr with the peptides at concentrations of 3-300 μg/mL. Triton-X100 was used as the positive control while the vehicle (PBS) was used as the negative control. Amphotericin B and melittin, both known to be hemolytic were used as reference compounds. Following incubation, the mixture was centrifuged at room temperature, and the supernatant was separated and analyzed for light absorbance at a single wavelength of 410 nm. The background absorbance reading from the negative control was subtracted from all samples. The Triton-X-100 sample was used to represent 100% lysis. All test compound and positive control samples were normalized to this value to determine the percent lysis caused by the test compounds and the positive controls at each concentration.

[2] = system: C. albicans; conditions: ATCC 90028 or 90029; 24 hrs
[3] = system: C. glabrata; conditions: ATCC 90030; 24 hrs
[4] = system: C. parapsilosis; conditions: ATCC 22019; 24 hrs
[5] = system: C. krusei; conditions: MMX 7135; 24 hrs
[6] = system: C. auris; conditions: CDC 386; 24 hrs
[7] = system: C. tropicalis; conditions: ATCC 90874; 24 hrs
[8] = system: C. dubliniensis; conditions: ATCC MYA-578; 24 hrs
[9] = system: C. neoformans; conditions: ATCC 90112; 72 hrs
[10] = system: C. gattii; conditions: ATCC MYA-4093; 72 hrs
[11] = system: Fusarium spp.; conditions: N = 3 strains; 48 hrs
[12] = system: Scedosporium spp.; conditions: N = 2 strains; 72 hrs
[13] = system: Trichophyton rubrum ATCC MYA-4438; conditions: 4-6 days
[14] = system: Epidermophyton floccosum ATCC 52066; conditions: 4-6 days
[15] = system: Microsporum gypseum ATCC 14683; conditions: 4-6 days
[16] = system: HepG2 cells
[17] = system: C. albicans; test: microbe, parasite or virus in culture; conditions: Candida albicans, ATCC90028, 24 h, read-out: MIC C. albicans
[18] = system: C. glabrata; test: microbe, parasite or virus in culture; conditions: Nakaseomyces glabratus, ATCC90030, 24 h, read-out: MIC C. glabrata
[19] = system: C. parapsilosis; test: microbe, parasite or virus in culture; conditions: Lodderomyces parapsilosis, ATCC22019, 24 h, read-out: MIC C. parapsilosis
[20] = system: C. krusei; test: microbe, parasite or virus in culture; conditions: Pichia kudriavzevii, 24 h, read-out: MIC C. krusei
[21] = system: C. auris; test: microbe, parasite or virus in culture; conditions: Candidozyma auris, 24 h, read-out: MIC C. auris
[22] = system: C. tropicalis; test: microbe, parasite or virus in culture; conditions: Candida tropicalis, ATCC90874, 24 h, read-out: MIC C. tropicalis
[23] = system: C. dubliniensis; test: microbe, parasite or virus in culture; conditions: Candida dubliniensis, 24 h, read-out: MIC C. dubliniensis
[24] = system: C. neoformans; test: microbe, parasite or virus in culture; conditions: Cryptococcus neoformans, ATCC90112, 72 h, read-out: MIC C. neoformans
[25] = system: C. gattii; test: microbe, parasite or virus in culture; conditions: Cryptococcus gattii, 72 h, read-out: MIC C. gattii
[26] = system: Trichophyton rubrum ATCC MYA-4438; test: microbe, parasite or virus in culture; conditions: read-out: MIC Trichophyton rubrum
[27] = system: Epidermophyton floccosum ATCC 52066; test: microbe, parasite or virus in culture; conditions: ATCC52066, read-out: MIC Epidermophyton floccosum
[28] = system: Microsporum gypseum ATCC 14683; test: microbe, parasite or virus in culture; conditions: Nannizzia gypsea, ATCC14683, read-out: MIC Microsporum gypseum
[29] = system: Candida spp.; conditions: 15 strains (Table 10)
[30] = Cytotoxicity in HepG2 cells, intracellular ATP assay; conditions: human, EC50 cytotoxicity in HepG2, intracellular ATP assay, Table 16; 18-22 hrs exposure without FBS
[31] = system: HepG2 cells; test: as above; conditions: Homo sapiens, HepG2, read-out: EC50 in HepG2 ATP assay, internal control, range across studies

C[C@@H]1[C@H](O)[C@@H](C)/C=C/C=C/C=C/C=C/C=C/C=C/C=C/[C@H](O[C@@H]2O[C@H](C)[C@@H](O)[C@H](N)[C@@H]2O)C[C@@H]2O[C@](O)(C[C@@H](O)C[C@@H](O)[C@H](O)CC[C@@H](O)C[C@@H](O)CC(=O)O[C@H]1C)C[C@H](O)[C@H]2C(=O)O [AMB, amphotericin B, reference compound]
EC50 hemolysis (50% lysis) [1]: 6.95 µg/mL (≈ 7.52 µM)
MIC C. albicans [2]: 0.5 µg/mL (≈ 0.541 µM)
MIC C. glabrata [3]: 0.5 µg/mL (≈ 0.541 µM)
MIC C. parapsilosis [4]: 0.25 µg/mL (≈ 0.271 µM)
MIC C. krusei [5]: 0.5 µg/mL (≈ 0.541 µM)
MIC C. auris [6]: 1 µg/mL (≈ 1.08 µM)
MIC C. tropicalis [7]: 0.5 µg/mL (≈ 0.541 µM)
MIC C. dubliniensis [8]: 0.25 µg/mL (≈ 0.271 µM)
MIC C. neoformans [9]: 0.25 µg/mL (≈ 0.271 µM)
MIC C. gattii [10]: 0.5 µg/mL (≈ 0.541 µM)
MIC Range Fusarium spp. [11]: 1 µg/mL (≈ 1.08 µM)
MIC Range Scedosporium spp. [12]: 1 to 2 µg/mL
MIC Trichophyton rubrum [13]: ≤0.06 µg/mL
MIC Epidermophyton floccosum [14]: 0.12 µg/mL (≈ 0.13 µM)
MIC Microsporum gypseum [15]: 0.5 µg/mL (≈ 0.541 µM)
EC50 cytotoxicity in HepG2, positive controls across studies [16]: 5.79 to 14.13 µg/mL

OC(Cn1cncn1)(Cn1cncn1)c1ccc(F)cc1F [FLC, fluconazole]
MIC Range Fusarium spp. [11]: >32 µg/mL
MIC [17]: 0.25 µg/mL (≈ 0.816 µM)
MIC [18]: 4 µg/mL (≈ 13.1 µM)
MIC [19]: 2 µg/mL (≈ 6.53 µM)
MIC [20]: 8 µg/mL (≈ 26.1 µM)
MIC [21]: > 32 µg/mL
MIC [22]: 0.25 µg/mL (≈ 0.816 µM)
MIC [23]: 0.5 µg/mL (≈ 1.63 µM)
MIC [24]: 4 µg/mL (≈ 13.1 µM)
MIC [25]: 8 µg/mL (≈ 26.1 µM)
MIC [26]: 0.5 µg/mL (≈ 1.63 µM)
MIC [27]: 1 µg/mL (≈ 3.27 µM)
MIC [28]: 2 µg/mL (≈ 6.53 µM)

N=C(N)NCCCC[C@H](NC(=O)[C@@H](CCCNC(=N)N)NC(=O)[C@H](CCCCNC(=N)N)NC(=O)[C@@H](CCCNC(=N)N)NC(=O)[C@@H]1CCCN1C(=O)[C@H](CCCCNC(=N)N)NC(=O)[C@@H](CCCNC(=N)N)NC(=O)[C@H](CCCCNC(=N)N)NC(=O)[C@@H](CCCNC(=N)N)NC(=O)[C@@H]1CCCN1C(=O)[C@@H](CCCNC(=N)N)NC(=O)[C@H](CCCCNC(=N)N)NC(=O)[C@@H](CCCNC(=N)N)NC(=O)[C@@H]1CCCN1C(=O)[C@@H](CCCNC(=N)N)NC(=O)[C@H](CCCCNC(=N)N)NC(=O)[C@H](N)CCCNC(=N)N)C(N)=O [SEQ ID NO: 88, r(Har)r-P-r(Har)r-P-r(Har)r(Har)-P-r(Har)r(Har)-NH2] (H-[dR][hArg][dR]P[dR][hArg][dR]P[dR][hArg][dR][hArg]P[dR][hArg][dR][hArg]-NH2)
MIC C. albicans [2]: 0.5 µg/mL (≈ 0.194 µM)
MIC C. glabrata [3]: 0.5 µg/mL (≈ 0.194 µM)
MIC C. parapsilosis [4]: 0.25 µg/mL (≈ 0.0969 µM)
MIC C. krusei [5]: 0.5 µg/mL (≈ 0.194 µM)
MIC C. auris [6]: 0.5 µg/mL (≈ 0.194 µM)
MIC C. tropicalis [7]: 0.5 µg/mL (≈ 0.194 µM)
MIC C. dubliniensis [8]: 0.5 µg/mL (≈ 0.194 µM)
MIC C. neoformans [9]: 0.5 µg/mL (≈ 0.194 µM)
MIC C. gattii [10]: 0.5 µg/mL (≈ 0.194 µM)
MIC50 Candida species [29]: 0.5 µg/mL (≈ 0.194 µM)
MIC90 Candida species [29]: 1 µg/mL (≈ 0.388 µM)
EC50 [30]: > 300 µg/mL

C=C(C)[C@H]1Cc2c(ccc3c2O[C@@H]2COc4cc(OC)c(OC)cc4[C@@H]2C3=O)O1 [rotenone, reference compound]
EC50 [31]: 129 to 594 nM

Source: US20240360177A1, “PEPTIDES WITH ANTIMICROBIAL ACTIVITIES” (priority 2021, published 2024)
